According to ChEMBL document CHEMBL5370624 (J Med Chem, 2023):
pEC50: −log10 of the molar value. Activity calls are given as the source filed them. The rule behind the calls is not given here.

Columns and labels:
[1] = Aqueous stability of the compound assessed as drug degradation at 40 degreeC and measured upto 12 months by LC-MS analysis; assay type: physicochemical; conditions: buffer, 8760 h
Toll-like receptor 4 [2] = molecular target: T1, Toll-like receptor 4 (Mus musculus, UniProt Q9QUK6); assay: Agonist activity at mouse TLR4 in human HEK-Blue mTLR4 cells assessed as NF-kappaB activation incubated for 48 hrs by SEAP reporter gene based Quanti-blue assay; assay type: cell-based
T1 sequence (Q9QUK6 whole entry): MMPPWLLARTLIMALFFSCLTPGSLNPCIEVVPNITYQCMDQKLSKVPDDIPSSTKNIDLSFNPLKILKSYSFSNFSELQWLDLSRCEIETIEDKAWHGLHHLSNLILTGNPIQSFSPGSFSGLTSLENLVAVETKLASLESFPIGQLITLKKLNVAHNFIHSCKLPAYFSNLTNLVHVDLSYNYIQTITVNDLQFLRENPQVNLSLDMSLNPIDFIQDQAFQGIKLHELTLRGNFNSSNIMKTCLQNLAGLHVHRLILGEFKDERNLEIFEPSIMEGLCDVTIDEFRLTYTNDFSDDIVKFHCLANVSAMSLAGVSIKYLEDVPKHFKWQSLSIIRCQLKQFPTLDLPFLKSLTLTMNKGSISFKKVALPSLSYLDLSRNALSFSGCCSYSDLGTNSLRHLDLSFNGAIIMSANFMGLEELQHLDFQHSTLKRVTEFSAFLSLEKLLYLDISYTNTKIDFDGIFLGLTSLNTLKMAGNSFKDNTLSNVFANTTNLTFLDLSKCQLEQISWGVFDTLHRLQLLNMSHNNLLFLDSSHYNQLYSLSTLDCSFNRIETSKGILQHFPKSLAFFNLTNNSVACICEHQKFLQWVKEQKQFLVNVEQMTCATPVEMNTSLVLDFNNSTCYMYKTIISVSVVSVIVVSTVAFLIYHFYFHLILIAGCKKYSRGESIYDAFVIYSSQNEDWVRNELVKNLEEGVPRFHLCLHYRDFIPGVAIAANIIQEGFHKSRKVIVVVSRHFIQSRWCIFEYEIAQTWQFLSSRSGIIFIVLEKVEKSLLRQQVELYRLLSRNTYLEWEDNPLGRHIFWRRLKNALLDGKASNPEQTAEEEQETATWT

Toll-like receptor 4 [3] = molecular target: T2, Toll-like receptor 4 (Homo sapiens, UniProt O00206); assay: Agonist activity at TLR4 in human PBMC cells assessed as induction of MIP-1beta release incubated for 20 hrs by ELISA; assay type: cell-based
T2 sequence (O00206 whole entry): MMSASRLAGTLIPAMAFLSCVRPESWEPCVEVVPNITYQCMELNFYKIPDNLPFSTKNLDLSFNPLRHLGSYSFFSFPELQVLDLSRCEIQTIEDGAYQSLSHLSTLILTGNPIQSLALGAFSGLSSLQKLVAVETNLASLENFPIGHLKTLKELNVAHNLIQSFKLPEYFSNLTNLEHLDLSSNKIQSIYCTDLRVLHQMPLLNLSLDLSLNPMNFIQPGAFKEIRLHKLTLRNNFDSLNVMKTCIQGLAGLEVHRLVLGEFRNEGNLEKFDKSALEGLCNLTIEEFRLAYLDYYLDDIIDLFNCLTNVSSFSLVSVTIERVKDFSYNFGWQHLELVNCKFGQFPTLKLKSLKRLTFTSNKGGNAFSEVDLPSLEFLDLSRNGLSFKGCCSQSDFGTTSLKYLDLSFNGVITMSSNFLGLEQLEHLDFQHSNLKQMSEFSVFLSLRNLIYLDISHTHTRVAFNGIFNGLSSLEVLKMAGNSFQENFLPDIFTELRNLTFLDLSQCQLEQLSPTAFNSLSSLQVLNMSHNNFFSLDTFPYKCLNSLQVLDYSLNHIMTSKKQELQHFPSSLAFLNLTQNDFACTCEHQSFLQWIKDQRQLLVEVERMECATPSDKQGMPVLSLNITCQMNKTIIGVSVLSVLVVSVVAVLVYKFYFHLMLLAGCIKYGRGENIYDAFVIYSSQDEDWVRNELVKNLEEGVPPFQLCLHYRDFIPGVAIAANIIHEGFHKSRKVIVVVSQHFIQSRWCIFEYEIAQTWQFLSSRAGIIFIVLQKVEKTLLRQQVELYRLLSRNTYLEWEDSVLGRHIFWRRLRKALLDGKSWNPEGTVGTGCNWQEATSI

[4] = Aqueous stability of the compound assessed as drug degradation at 2 to 8 degreeC and measured upto 12 months by LC-MS analysis; assay type: physicochemical; conditions: buffer, 8760 h
Toll-like receptor 4 [5] = molecular target: T2, Toll-like receptor 4; assay: Agonist activity at TLR4 in human PBMC cells assessed as induction of IL-1beta release incubated for 20 hrs by ELISA; assay type: cell-based
Toll-like receptor 4 [6] = molecular target: T2, Toll-like receptor 4; assay: Agonist activity at human TLR4 in human HEK-Blue hTLR4 cells assessed as NF-kappaB activation incubated for 48 hrs by SEAP reporter gene based Quanti-blue assay; assay type: cell-based
Toll-like receptor 4 [7] = molecular target: T2, Toll-like receptor 4; assay: Agonist activity at TLR4 in human PBMC cells assessed as induction of TNFalpha release incubated for 20 hrs by ELISA; assay type: cell-based
Toll-like receptor 4 [8] = molecular target: T1, Toll-like receptor 4; assay: Agonist activity at TLR4 in mouse RAW264.7 cells assessed as induction of MIP-1beta release incubated for 24 hrs by ELISA; assay type: cell-based
Toll-like receptor 4 [9] = molecular target: T2, Toll-like receptor 4; assay: Agonist activity at TLR4 in human MONO-MAC-6 cells assessed as induction of MIP-1beta release incubated for 24 hrs by ELISA; assay type: cell-based
[10] = Aqueous stability of the compound assessed as drug degradation at 2 to 8 degreeC and measured upto 12 months by RP-HPLC analysis; assay type: physicochemical; conditions: buffer, 8760 h
Toll-like receptor 4 [11] = molecular target: T2, Toll-like receptor 4; assay: Agonist activity at TLR4 in human PBMC cells assessed as induction of RANTES release incubated for 20 hrs by ELISA; assay type: cell-based
[12] = Aqueous stability of the compound assessed as drug degradation at 2 to 8 degreeC and measured after 1 month by LC-MS analysis; assay type: physicochemical; conditions: buffer, 730 h; time 1 months
Mus musculus [13] = species on record: Mus musculus; assay: Immuno-adjuvant activity in H3N2-split A/Victoria/210/2009 influenza virus-immunized BALB/c mouse model assessed as increase in influenza specific serum IgG titer level at 0.001 to 0.1 ug,IM and measured after 14 days by ELISA; assay type: functional, organism-based; conditions: dose 0.001-0.1 µg, time 14.0 day
Mus musculus [14] = assay: Immuno-adjuvant activity in H3N2-split A/Victoria/210/2009 influenza virus-immunized BALB/c mouse model assessed as increase in influenza specific serum IgG titer level at 0.001 to 0.1 ug,IM administered on day 0 and 14 and measured after 28 days by ELISA; assay type: functional, organism-based; conditions: dose 0.001-0.1 µg, time 28.0 day
Mus musculus [15] = species on record: Mus musculus; assay: Immuno-adjuvant activity in H3N2-split A/Victoria/210/2009 influenza virus-immunized BALB/c mouse model assessed as increase in influenza specific serum IgG1 titer level at 0.001 to 0.1 ug,IM and measured after 14 days by ELISA; assay type: functional, organism-based; conditions: dose 0.001-0.1 µg, time 14.0 day
[16] = Toxicity in H3N2-split A/Victoria/210/2009 influenza virus-immunized BALB/c mouse model assessed as reactogenicity at 0.001 to 0.1 ug,IM administered on day 0 and 14 and measured after 28 days; conditions: in vivo, 672 h, dose 0.001-0.1 µg, time 28 day
[17] = Toxicity in H3N2-split A/Victoria/210/2009 influenza virus-immunized BALB/c mouse model assessed as abnormality at 0.001 to 0.1 ug,IM administered on day 0 and 14 and measured after 28 days; conditions: in vivo, 672 h, dose 0.001-0.1 µg, time 28 day
Mus musculus [18] = assay: Immuno-adjuvant activity in H3N2-split A/Victoria/210/2009 influenza virus-immunized BALB/c mouse model assessed as increase in influenza specific serum IgG1 titer level at 0.001 to 0.1 ug,IM administered on day 0 and 14 and measured after 28 days by ELISA; assay type: functional, organism-based; conditions: dose 0.001-0.1 µg, time 28.0 day
Mus musculus [19] = assay: Immuno-adjuvant activity in H3N2-split A/Victoria/210/2009 influenza virus-immunized BALB/c mouse model assessed as increase in influenza specific serum IgG2a titer level at 0.001 to 0.1 ug,IM administered on day 0 and 14 and measured after 28 days by ELISA; assay type: functional, organism-based; conditions: dose 0.001-0.1 µg, time 28.0 day

## CCCCCCCCCCC[C@H](CC(=O)NCCO[C@@H]1O[C@H](CO)[C@@H](OP(=O)(O)O)[C@@H](NC(=O)C[C@@H](CCCCCCCCCCC)OC(=O)CCCCCCCCC)[C@H]1NC(=O)C[C@@H](CCCCCCCCCCC)OC(=O)CCCCCCCCC)OC(=O)CCCCCCCCC.CCN(CC)CC
[1]
  Stability: Stable
Toll-like receptor 4 [2]
  pEC50: 9.43
Toll-like receptor 4 [3]
  pEC50: 8.79
[4]
  Stability: Stable
Toll-like receptor 4 [5]
  pEC50: 8.06
Toll-like receptor 4 [6]
  pEC50: 7.04
Toll-like receptor 4 [7]
  pEC50: 7.55
Toll-like receptor 4 [8]
  pEC50: 9.59
Toll-like receptor 4 [9]
  pEC50: 8.78
[10]
  Stability: Stable
Toll-like receptor 4 [11]
  pEC50: 8.43

## CCCCCCCCCCC[C@H](CC(=O)NCCO[C@@H]1O[C@H](CO)[C@@H](OP(=O)(O)O)[C@H](OC(=O)C[C@@H](CCCCCCCCCCC)OC(=O)CCCCCCCCC)[C@H]1NC(=O)C[C@@H](CCCCCCCCCCC)OC(=O)CCCCCCCCC)OC(=O)CCCCCCCCC
Toll-like receptor 4 [2]
  pEC50: 9.37
[12]
  Stability: Stable
Toll-like receptor 4 [3]
  pEC50: 8.71
Toll-like receptor 4 [5]
  pEC50: 8.58
Toll-like receptor 4 [6]
  pEC50: 6.76
Toll-like receptor 4 [7]
  pEC50: 7.27
Toll-like receptor 4 [8]
  pEC50: 9.32
Toll-like receptor 4 [9]
  pEC50: 8.17
Toll-like receptor 4 [11]
  pEC50: 8.90

## CCCCCCCCCCCCCCCC(=O)O[C@H](CCCCCCCCCCC)CC(=O)N[C@@H]1[C@@H](O)[C@H](O)[C@@H](CO[C@@H]2O[C@H](CO)[C@@H](OP(=O)(O)O)[C@H](OC(=O)C[C@@H](CCCCCCCCCCC)OC(=O)CCCCCCCCCCCCC)[C@H]2NC(=O)C[C@@H](CCCCCCCCCCC)OC(=O)CCCCCCCCCCC)O[C@@H]1O
Toll-like receptor 4 [2]
  pEC50: 8.18
Toll-like receptor 4 [3]
  pEC50: 7.63
Toll-like receptor 4 [5]
  pEC50: 7.37
Toll-like receptor 4 [6]
  pEC50: 6.61
Toll-like receptor 4 [7]
  pEC50: 6.70
Toll-like receptor 4 [8]
  pEC50: 8.43
Toll-like receptor 4 [9]
  pEC50: 8.20
Toll-like receptor 4 [11]
  pEC50: 7.50

## CCCCCCCCCCC[C@H](CC(=O)N[C@H]1[C@H](OC[C@H](NC(=O)C[C@@H](CCCCCCCCCCC)OCCCCCCCCCC)C(=O)O)O[C@H](CO)[C@@H](OS(=O)(=O)O)[C@H]1NC(=O)C[C@@H](CCCCCCCCCCC)OCCCCCCCCCC)OCCCCCCCCCC.CCN(CC)CC
[1]
  Stability: Stable
Toll-like receptor 4 [2]
  pEC50: 9.17
Mus musculus [13]
  Activity: Dose-Dependent Effect
Toll-like receptor 4 [3]
  pEC50: 9.62
[4]
  Stability: Stable
Toll-like receptor 4 [5]
  pEC50: 9.01
Toll-like receptor 4 [6]
  pEC50: 7.58
Mus musculus [14]
  Activity: Active
Mus musculus [15]
  Activity: Dose-Dependent Effect
[16]
  Activity: Non-Toxic
[17]
  Activity: Non-Toxic
Toll-like receptor 4 [7]
  pEC50: 8.16
Toll-like receptor 4 [8]
  pEC50: 10.40
Toll-like receptor 4 [9]
  pEC50: 9.19
Mus musculus [18]
  Activity: Active
Mus musculus [19]
  Activity: Active
[10]
  Stability: Stable
Toll-like receptor 4 [11]
  pEC50: 9.34
